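Growth conditions: 96-well plates. Treatment: test compound, 48 hours, 5 concentrations. Analysis: linear interpolation between bracketing concentrations; unreached endpoints set to highest concentration. Here, GI50 denotes the concentration required for 50% inhibition of growth.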 Activity calls are given as the source filed them. Cut-off read from the data, not from the text of the source: active = GI50 up to about 1.1 µM and inactive = higher.
Experiments:
Test in all cases: NCI tumour cell line growth inhibition, 48 h
HOP-92 = test system: HOP-92
ACHN = test system: ACHN
A549 = test system: A549
OVCAR-4 = test system: OVCAR-4
Malme-3M = test system: Malme-3M
MDA-N = test system: MDA-N
SF-295 = test system: SF-295
UACC-62 = test system: UACC-62
TK-10 = test system: TK-10
SN12C = test system: SN12C
UO-31 = test system: UO-31
MDA-MB-231 = test system: MDA-MB-231
SNB-19 = test system: SNB-19
UACC-257 = test system: UACC-257
HT-29 = test system: HT-29
786-0 = test system: 786-0
NCI-H23 = test system: NCI-H23
SNB-75 = test system: SNB-75
NCI/ADR-RES = test system: NCI/ADR-RES

SMILES | GI50 (HOP-92) | GI50 (ACHN) | GI50 (A549) | GI50 (OVCAR-4) | GI50 (Malme-3M) | GI50 (MDA-N) | GI50 (SF-295) | GI50 (UACC-62) | GI50 (TK-10) | GI50 (SN12C) | GI50 (UO-31) | GI50 (MDA-MB-231) | GI50 (SNB-19) | GI50 (UACC-257) | GI50 (HT-29) | GI50 (786-0) | GI50 (NCI-H23) | GI50 (SNB-75) | GI50 (NCI/ADR-RES)
COc1ccccc1NC(=O)C(C#N)=C(SC)SC | 32.3 µM (inactive) | > 100 µM (inactive) | > 100 µM (inactive) | > 100 µM (inactive) | > 100 µM (inactive) | > 100 µM (inactive) | > 100 µM (inactive) | > 100 µM (inactive) | > 100 µM (inactive) | > 100 µM (inactive) | > 100 µM (inactive) | > 100 µM (inactive) | > 100 µM (inactive) | > 100 µM (inactive) | > 100 µM (inactive) | > 100 µM (inactive) | > 100 µM (inactive) | – | –
CCCCCCCC/C=C\CCCCCCCC(=O)NCCN(CCN)C(=O)CCCCCCC/C=C\CCCCCCCC | > 100 µM (inactive) | > 100 µM (inactive) | > 100 µM (inactive) | > 100 µM (inactive) | > 100 µM (inactive) | – | > 100 µM (inactive) | > 100 µM (inactive) | > 100 µM (inactive) | > 100 µM (inactive) | > 100 µM (inactive) | – | > 100 µM (inactive) | > 100 µM (inactive) | > 100 µM (inactive) | > 100 µM (inactive) | > 100 µM (inactive) | – | –
O=C1CNc2cc(N3CCOCC3)ccc2N1 | > 100 µM (inactive) | > 100 µM (inactive) | > 100 µM (inactive) | > 100 µM (inactive) | > 100 µM (inactive) | – | > 100 µM (inactive) | 64.9 µM (inactive) | > 100 µM (inactive) | – | > 100 µM (inactive) | > 100 µM (inactive) | > 100 µM (inactive) | > 100 µM (inactive) | > 100 µM (inactive) | > 100 µM (inactive) | > 100 µM (inactive) | > 100 µM (inactive) | > 100 µM (inactive)
CC1(C)CCC[C@]2(C)[C@@H]1CC[C@@]13O[C@@H]1C1=C(CO)C(=O)OC1=C[C@@H]23 | 15.4 µM (inactive) | 29.2 µM (inactive) | 10.4 µM (inactive) | 19.2 µM (inactive) | 1.1 µM (active) | – | 16.9 µM (inactive) | 13.5 µM (inactive) | 25.2 µM (inactive) | 12.9 µM (inactive) | 11.7 µM (inactive) | 31.1 µM (inactive) | 13.6 µM (inactive) | 18.2 µM (inactive) | 14 µM (inactive) | 14.3 µM (inactive) | 17.5 µM (inactive) | 30.5 µM (inactive) | 15.8 µM (inactive)
CC1=C(N2CC2)C(=O)c2ccccc2C1=O | – | 0.257 µM (active) | 0.566 µM (active) | 0.918 µM (active) | 1.27 µM (inactive) | – | 0.618 µM (active) | 0.811 µM (active) | 2.08 µM (inactive) | 0.312 µM (active) | 0.78 µM (active) | 13.8 µM (inactive) | 1.21 µM (inactive) | 0.327 µM (active) | 0.394 µM (active) | 0.871 µM (active) | – | 0.462 µM (active) | 1.06 µM (active)
COC(=O)CC(=O)C[P+](c1ccccc1)(c1ccccc1)c1ccccc1 | 102 µM (inactive) | > 218 µM (inactive) | 197 µM (inactive) | – | 192 µM (inactive) | – | 116 µM (inactive) | 178 µM (inactive) | > 218 µM (inactive) | 95.3 µM (inactive) | – | – | > 218 µM (inactive) | 114 µM (inactive) | 121 µM (inactive) | > 218 µM (inactive) | 141 µM (inactive) | – | –
COC(=O)CC(C(C(=O)OCc1ccccc1)C(C)O)N1C(=O)OC(c2ccccc2)C1c1ccccc1 (stereo not given) | – | > 100 µM (inactive) | 95.5 µM (inactive) | > 100 µM (inactive) | > 100 µM (inactive) | – | 64.6 µM (inactive) | 52 µM (inactive) | > 100 µM (inactive) | > 100 µM (inactive) | 48.9 µM (inactive) | – | > 100 µM (inactive) | > 100 µM (inactive) | > 100 µM (inactive) | > 100 µM (inactive) | > 100 µM (inactive) | – | –
